Literature values as cited in patent publication US10919913B2, “Spiro[3H-indole-3,2′-pyrrolidin]-2(1H)-one compounds and derivatives as MDM2-p53 inhibitors” (Boehringer Ingelheim International GmbH, priority 2014, dated 2021).

Tested on: p53 wild-type vs. p53 mutant cell lines
Conditions: in vitro, PPTP of the NCI (Carol et al. 2013)

## CCOc1cc(C(C)(C)C)ccc1C1=N[C@@](C)(c2ccc(Cl)cc2)[C@@](C)(c2ccc(Cl)cc2)N1C(=O)N1CCN(CCCS(C)(=O)=O)CC1 [RG-7112]
  cytotoxic activity, median IC50 p53 wild-type vs. p53 mutant cell lines: lower median IC50 values for p53 wild-type vs. p53 mutant cell lines
